Measured values reported in article PMC6127930 (2018).
One block for each compound: values may come before it.

System: oxytetracycline binding aptamer (OBA) (DNA, aptamer) CGTACGGAATTCGCTAGCACGTTGACGCTGGTGCCCGGTTGTGGTGCGAGTGTTGTGTGGATCCGAGCTCCACGTG
Experiment: magnetic capture, UV-Vis of unbound at 368 nm
Settings: 100 mM NaCl, 5 mM KCl, 2 mM MgCl2, 1 mM CaCl2, 20 mM Tris-HCl pH 7.6, room temperature, 2 h

- binding (5 µM compound, 85 ± 2.8% captured): yes
SMILES: CN(C)[C@@H]1C(=O)C(C(N)=O)=C(O)[C@@]2(O)C(=O)C3=C(O)c4c(O)cccc4[C@@](C)(O)[C@H]3[C@H](O)[C@@H]12

- binding (tested at 5 µM, 9.0 ± 1.3% non-specifically adsorbed): no
SMILES: COc1ccc2cc([C@H](C)C(=O)O)ccc2c1

- binding (tested at 5 µM, 8.7 ± 3.7% non-specifically adsorbed): no
SMILES: O=C(O)Cc1ccccc1Nc1c(Cl)cccc1Cl
